Data taken from patent US20060205756A1, “Antitussives” (Kyowa Hakko Kogyo Co., Ltd., priority 2003, published 2006).

Test system: citric acid-induced cough
Assay: Citric acid-induced cough model of guinea pig
Format: in vivo
Details: for Numbers of the cough reflex by inhalation of citric acid: 1 hour before citric acid inhalation (0.5 mol/L, 2 min), coughs counted during 15 minutes, mean ± standard error; for Suppression of cough reflex as compared with the solvent group: Student's t-test versus solvent-administered group
Excerpt: Antitussive activity is able to be evaluated by suppression of the cough induced by inhalation of a substance such as citric acid, capsaicin, etc. It is also possible to evaluate antitussive activity by suppression of the cough induced by a direct infusion of citric acid or capsaicin into airway [Nippon Yakurigaku Zasshi, volume 120, page 237 (2002)]. It is further possible to evaluate antitussive activity by suppression of the cough by a physical stimulation, for example, contact stimulation of throat or airway [Eur. J. Phazmacol., volume 329, page 93 (1997)].
Evaluation Using the Citric Acid-Induced Cough Model of Guinea Pig
Guinea pigs (Hartley strain; male; six weeks age; Nippon SLC) were used for the test. Induction of cough reflex by citric acid was conducted in a similar manner to the method by Hosoe, et al. [Yakuri to Rinsho, volume 5, page 2147 (1995)]. Thus, the guinea pig was fixed in a double chamber plethysmograph box (manufactured by Buxco Electronics) for guinea pigs and ventilation was conducted at about 1.6 L/minute. A physiological saline containing 0.5 mol/L of citric acid (manufactured by Wako Pure Chemical) was sprayed for 2 minutes from the upper part of the box of the head side using an ultrasonic nebulizer (NE-U12 manufactured by Omron) and discharged from the side drain. The cough reflex was measured by the generated cough sound and the respiration waveform. Numbers of coughs generated during 15 minutes from initiation of inhalation of citric acid were counted. Compound 1, Compound 2 and codeine phosphate (manufactured by Shionogi) each was suspended in 0.5 w/v % methyl cellulose 400 cP (manufactured by Wako Pure Chemical) and orally administered 1 hour before the initiation of the inhalation of citric acid. Incidentally, with regard to the Compound 1 and Compound 2, each 2, mg thereof was suspended in 1 mL of 0.5 w/v % methyl cellulose 400 cP while, with regard to codeine phosphate, 4 mg thereof was suspended in 1 mL of 0.5 w/v % methyl cellulose 400 cP and the suspension was administered at 5 mL per kg body weight. Numbers of the cough reflex by inhalation of citric acid in the group administered with the solvent were 7.9±1.8, while those in the group administered with 10 mg/kg of Compound 1 were 2.0±1.0. In this test, seven guinea pigs were used for the group administered with the solvent and for the group administered with Compound 1, respectively. Numbers of the cough reflex were expressed as the mean value ±standard error. […] Numbers of the cough reflex by inhalation of citric acid in the group administered with 10 mg/kg of Compound 2 were 4.3±1.0, while those in the group administered with the solvent were 10.3±1.8. In this test, twelve guinea pigs were used for the group administered with the solvent and for the group administered with Compound 2, respectively. Numbers of the cough reflex were expressed as the mean value±standard error. […] Numbers of the cough reflex in the group administered with 20 mg/kg of codeine phosphate which is a central antitussive were 1.8±0.5, while those in the group administered with the solvent were 6.8±1.4. In this test, six guinea pigs were used for the group administered with the solvent and for the group administered with codeine phosphate. Numbers of the cough reflex were expressed as the mean value±standard error.

Row | Structure (SMILES) | Numbers of the cough reflex by inhalation of citric acid (10 mg/kg oral) | Suppression of cough reflex as compared with the solvent group (10 mg/kg oral) | Numbers of the cough reflex by inhalation of citric acid (20 mg/kg oral)
1 | C[C@](O)(C(=O)Nc1cccc2c1C(=O)c1sccc1CS2(=O)=O)C(F)(F)F [Compound 1] | 2.0±1.0 | significant suppressive response | –
2 | COc1ccc2c3c1O[C@H]1[C@@H](O)C=C[C@H]4[C@@H](C2)N(C)CC[C@@]341 [codeine phosphate, reference compound] | – | – | 1.8±0.5
3 | CC(C)(O)C(=O)Nc1cccc2c1C(=O)c1sccc1CS2(=O)=O [Compound 2] | 4.3±1.0 | significant suppressive response | –
